No end group written: not given here.
Key:
[1] = test system: K. pneumoniae; assay: microbe, parasite or virus in culture; type: cell-based, Klebsiella pneumoniae
Method: To assess the combined effect of peptides and antibiotics, a checkerboard test was performed. An inoculum of K. pneumoniae at 2 × 10^5 CFU/mL was used for the assay. Serial dilutions of peptides and meropenem were executed, and 10 μL of peptide and antibiotic were added into the 96-well plate, individually and/or in combination. The plate was incubated for 24 h to 37°C and the combinatorial effect was calculated as an index of fractional inhibitory concentration (FICI) with the following formula ([Giugliano et al., 2023]).
FICI=MICmeropenem in combination/MICmeropenem+MICpeptide in combination/MICpeptide
• FICI ≤ 0.5, synergy. • 0.5 < FICI ≤ 1.0, partial synergy. • […], no interaction. • FICI > 4.0, antagonism.

[2] = test system: S. thyphimurium; assay: Broth microdilution MIC/MBC; type: cell-based; details: for MIC: broth microdilution, 1 × 10^5 CFU/mL, concentration inhibiting 95% bacterial growth, triplicate; for MBC: lowest concentration killing 99.9% of the bacterial load after 18 h at 37°C on MHA
[3] = test system: K. pneumoniae ATCC 10031; assay: Broth microdilution MIC/MBC; type: cell-based, Klebsiella pneumoniae; details: reference strain ATCC 10031; for MIC: broth microdilution, 1 × 10^5 CFU/mL, concentration inhibiting 95% bacterial growth, triplicate; for MBC: lowest concentration killing 99.9% of the bacterial load after 18 h at 37°C on MHA
Method: (§1) Antibacterial activity of peptides was conducted against a panel of bacterial strains both Gram-positive (Staphylococcus aureus ATCC 6538, Enterococcus faecalis ATCC 29212, Listeria monocytogenes MB 677), and Gram-negative (E. coli ATCC 11229, K. pneumoniae ATCC 10031, Pseudomonas aeruginosa O1, Burkordelia cepacea LGM16656). The analysis has been extended to clinical isolates of K. pneumoniae carbapenemases producers isolated and characterized at the Microbiology Laboratory of the University Hospital “Luigi Vanvitelli,” Naples, Italy, using a BD Phoenix M50 instrument (Becton, Dickinson and Company, Franklin Lakes, NJ, USA) and listed in Table 1. The test was carried out as reported elsewhere ([Folliero et al., 2022]). The final bacterial concentration inoculated in the 96-well plate was 1 × 10^5 CFU/mL. Vancomycin (5 μg/mL) and meropenem (10 μg/mL) (Burlington, MA, USA) were used as positive control (CTRL+) against Gram-positive and Gram-negative bacteria, respectively.
(§2) The concentration of peptides inhibiting 95% bacterial growth was recorded as MIC. After setting the MIC value, 50 μL were taken from the 2MIC, 1MIC, and ½ MIC and spotted on MHA. The plates were incubated for 18 h at 37°C. The number of colony-forming units was calculated, and MBC was recorded as the lowest concentration of peptide capable of killing 99.9% of the bacterial load after 18 h of incubation.

[4] = test system: Burkordelia cepacea LGM16656 (B. cepacia); assay: Broth microdilution MIC/MBC; type: cell-based; details: for MIC: broth microdilution, 1 × 10^5 CFU/mL, concentration inhibiting 95% bacterial growth, triplicate
Method: as §1, §2

[5] = test system: E. coli ATCC 11229; assay: Broth microdilution MIC/MBC; type: cell-based; details: for MIC: broth microdilution, 1 × 10^5 CFU/mL, concentration inhibiting 95% bacterial growth, triplicate; for MBC: lowest concentration killing 99.9% of the bacterial load after 18 h at 37°C on MHA
Method: as §1, §2

[6] = test system: Enterococcus faecalis ATCC 29212; assay: Broth microdilution MIC/MBC; type: cell-based; details: for MIC: broth microdilution, 1 × 10^5 CFU/mL, concentration inhibiting 95% bacterial growth, triplicate; for MBC: lowest concentration killing 99.9% of the bacterial load after 18 h at 37°C on MHA
Method: as §1, §2

[7] = test system: Listeria monocytogenes MB 677; assay: Broth microdilution MIC/MBC; type: cell-based; details: for MIC: broth microdilution, 1 × 10^5 CFU/mL, concentration inhibiting 95% bacterial growth, triplicate; for MBC: lowest concentration killing 99.9% of the bacterial load after 18 h at 37°C on MHA
Method: as §1, §2

[8] = test system: Pseudomonas aeruginosa O1; assay: Broth microdilution MIC/MBC; type: cell-based; details: 1 × 10^5 CFU/mL, concentration inhibiting 95% bacterial growth, triplicate
Method: as §1, §2

[9] = test system: Staphylococcus aureus ATCC 6538; assay: Broth microdilution MIC/MBC; type: cell-based; details: for MIC: broth microdilution, 1 × 10^5 CFU/mL, concentration inhibiting 95% bacterial growth, triplicate; for MBC: lowest concentration killing 99.9% of the bacterial load after 18 h at 37°C on MHA
Method: as §1, §2

[10] = test system: K. pneumoniae 1746 (VIM, class B); assay: Broth microdilution MIC/MBC, clinical isolate; type: cell-based, Klebsiella pneumoniae; details: clinical isolate 1746, VIM; for MIC: rectal swab, broth microdilution, 95% growth inhibition
Method: as §1, §2

[11] = Stability of peptides in serum; type: in vitro ADME; details: 2.0 mg/mL peptide, 37°C; for remaining at 16 h, 2 mg/mL: RP-HPLC peak area vs t0 (100%), mean of duplicates, read-out: Peptide remaining in solution after 16 h in serum
Method: Peptide stability in serum was performed as previously reported ([Russo et al., 2021]). Briefly, peptides were diluted in serum to a final concentration of 2.0 mg/mL and incubated at 37°C. Aliquots of each peptide taken at different times up to 16 h were analyzed by RP-HPLC on an Aeris PEPTIDE XB-C18 column (2.1 × 100 mm, 3.6 μm). Peptide concentrations in solution were determined from RP-HPLC peak areas compared to peak areas obtained at t0 (set as 100%).

[12] = test system: HaCaT cell line (human keratinocytes cells); assay: MTT cytotoxicity on HaCaT cells; type: cell-based; details: 100 μM, 24 h
Method: Peptides cytotoxicity was evaluated on the HaCaT cell line (human keratinocytes cells) obtained from the CLS–Cell Lines Service (Eppelheim, Germany). The cell monolayer was treated with different peptide concentrations from 3 to 100 μM for 24 h. Then, methylthiazolyldiphenyl-tetrazolium bromide (MTT) (Sigma-Aldrich, St. Louis, MO, USA) assay was performed as already reported ([Ambrosino et al., 2023]). Untreated cells represented positive control (CTRL+), while cells treated with 100% DMSO represented negative control (CTRL−). Absorbance was recorded at 570 nm, and cell viability was calculated with Equation 1:
(1) %ofcellviability=absorbanceoftreatedcells/absorbanceofuntreatedcellsx100

[13] = test system: K. pneumoniae 1711 (KPC, class A); assay: Broth microdilution MIC/MBC, clinical isolate; type: cell-based, Klebsiella pneumoniae; details: clinical isolate 1711, KPC; for MIC: rectal swab, broth microdilution, 95% growth inhibition
Method: as §1, §2

[14] = test system: K. pneumoniae 1745 (KPC, class A); assay: Broth microdilution MIC/MBC, clinical isolate; type: cell-based, Klebsiella pneumoniae; details: clinical isolate 1745, KPC; for MIC: ulcer, broth microdilution, 95% growth inhibition; for MBC: killing 99.9% after 18 h
Method: as §1, §2

[15] = test system: K. pneumoniae 311 (OXA-48, class D); assay: Broth microdilution MIC/MBC, clinical isolate; type: cell-based, Klebsiella pneumoniae
Method: as §1, §2

[16] = test system: several strains of K. pneumoniae KPC-producers; assay: MIC/MBC summarised over the clinical isolates; type: cell-based, Klebsiella pneumoniae; details: summary over strains 311, 1746, 1745, 1711
Method: as §1, §2

Compound | MIC [2] | MIC [3] | MIC [4] | MIC [5] | MIC [6] | MBC [6] | MIC [7] | MIC [8] | MIC [9] | MIC [10] | remaining at 16 h, 2 mg/mL [11] | Cell viability [12] | MBC [2] | MBC [3] | MBC [5] | MBC [7] | MBC [9] | MIC [13] | MIC [14] | MBC [14] | also measured
C[C@@H](O)[C@H]1C(=O)N2C(C(=O)O)=C(S[C@@H]3CN[C@H](C(=O)N(C)C)C3)[C@H](C)[C@H]12 [meropenem] | – | – | – | – | – | – | – | – | – | – | – | – | – | – | – | – | – | – | – | – | MIC ([1]; Klebsiella pneumoniae, checkerboard, 2 × 10^5 CFU/mL, 24 h, 37°C, read-out: MIC of meropenem alone): 5 µg/mL; MIC of meropenem in combination ([1]; combined with 3 μM of pantinin 1, checkerboard, 24 h, 37°C): 0.62 µg/mL
FLSTIWNGIKSLL-NH2 [Pantinin 3] | 50 µM | 25 µM | 50 µM | 50 µM | 25 µM | 25 µM | 25 µM | 50 µM | 12.5 µM | 50 µM | ~80% | 10% | – | – | – | – | – | – | – | – | –
GILGKLWEGFKSIV-NH2 [Pantinin 1] | 50 µM | 6.25 µM | 25 µM | 12.5 µM | 12.5 µM | 25 µM | 6.25 µM | 50 µM | 6.25 µM | 25 µM | – | approximately 70% | 50 µM | 12.5 µM | 25 µM | 12.5 µM | 6.25 µM | 25 µM | 25 µM | 25 µM | MBC ([4]; lowest concentration killing 99.9% of the bacterial load after 18 h at 37°C on MHA): 25 µM; MBC ([13]; killing 99.9% after 18 h): 25 µM; MIC ([15]; clinical isolate 311, OXA-48, rectal swab, broth microdilution, 95% growth inhibition): 25 µM; MBC ([15]; clinical isolate 311, OXA-48, killing 99.9% after 18 h): 25 µM; MIC against the tested clinical K. pneumoniae strains [16]: 25 µM; Stability in serum in the time interval analysed ([11]; up to 16 h, RP-HPLC peak area vs t0, duplicates): stable; FICI ([1]; pantinin 1 (3 μM) with meropenem (0.62 μg/mL)): 0.624
IFGAIWKGISSLL-NH2 [Pantinin 2] | 50 µM | 12.5 µM | 50 µM | 25 µM | 12.5 µM | 12.5 µM | 6.25 µM | 50 µM | 12.5 µM | 25 µM | ~70% | 25% | 50 µM | 12.5 µM | 25 µM | 12.5 µM | 12.5 µM | 50 µM | 50 µM | 50 µM | MBC ([10]; killing 99.9% after 18 h): 50 µM

From publication PMC12162962, “The inhibitory potential of three scorpion venom peptides against multidrug-resistant Klebsiella pnemoniae” (Frontiers in Microbiology, 2025)
